Data on 30 molecules can be found in patent US20120142771A1, “BIPHENYLACETAMIDE DERIVATIVE” (Dainippon Sumitomo Pharma Co., Ltd., priority 2008, published 2012).

For test [1], the system named is maximum electroshock seizure (MES) model. Description: Maximum electroshock seizure (MES) model test. The class given is in vivo, mice. To be noted: for responders at 50 mg/kg / responders at 100 mg/kg: Mus musculus, po, 1 h, read-out: MES (positive number/tested number) (converted); for responders at 50 mg/kg / responders at 100 mg/kg / MES (positive number/tested number): Slc: ddY male mice, 3 per group, electrical stimulation 1 hour after administration, inhibition of hind limb extension; for anticonvulsant action in maximum electroshock seizure (MES) model test: mice, oral 50 or 100 mg/kg, 1 hour after administration. The source says:
In order to evaluate the antiepileptic activity of each drug, maximum electroshock seizure (MES) model, subcutaneously pentetrazol-injected model (scPTZ), and amygdala kindling model in rats were used because they show a good clinical prediction.
Test 1: Test with Maximum Electroshock Seizure (MES) Model
Test 1 evaluates the anticonvulsant action of medicaments. Animal model used herein represents the clinical phenotypes of generalized tonic seizure and secondarily generalized tonic-clonic seizure. Test compounds (50 or 100 mg/kg) were orally administered to Slc: ddY male mice (3 mice in each group, body weight 20-30 g). After an hour of administration, their corneas were electrically stimulated (60 Hz, 25 mA, 0.2 second) to induce tonic convulsion (tonic extensor in their hind limbs). […] To the control mice, 0.5% tragacanth solution or 0.5% methylcellulose solution was administered.

For test [2], the system named is subcutaneously pentetrazol-injected model (scPTZ). Description: Subcutaneously pentetrazol-injected model (scPTZ) test. The settings on record: pentetrazol 85 mg/kg s.c. after 1 hour; for responders at 100 mg/kg / responders at 50 mg/kg: Mus musculus, po, 1 h, read-out: scPTZ (positive number/tested number) (converted); for responders at 100 mg/kg / responders at 50 mg/kg / scPTZ (positive number/tested number): Slc: ddY male mice, 3 per group, observed 30 minutes for clonic convulsion; for anticonvulsant action in subcutaneously pentetrazol-injected model (scPTZ) test: mice, oral 50 or 100 mg/kg. The class given is in vivo, mice. The text has this:
In order to evaluate the antiepileptic activity of each drug, maximum electroshock seizure (MES) model, subcutaneously pentetrazol-injected model (scPTZ), and amygdala kindling model in rats were used because they show a good clinical prediction. […] Test with Subcutaneously Pentetrazol-Injected Model (scPTZ) Similar to Test 1, Test 2 evaluates the anticonvulsant action of medicaments. However, unlike Test 1, animal model used herein represents the clinical phenotypes of generalized absence seizure and myoclonic seizure. Test compounds (50 or 100 mg/kg) were orally administered to Slc: ddY male mice (3 mice in each group, body weight 20-30 g). After an hour, pentetrazol (85 mg/kg) was subcutaneously administered. […] To the control mice, 0.5% tragacanth solution or 0.5% methylcellulose solution was administered.

The structures appear in SMILES notation.

Turning to `CNC(=O)Cc1ccc(F)cc1-c1ccccc1` [Example 40], the responders at 50 mg/kg in test [1] (50 mg/kg oral) is 33.3%. Besides, the responders at 100 mg/kg in test [1] (100 mg/kg oral) is 100%; in test [2] (100 mg/kg oral), 0%.

Consider `NC(=O)Cc1ccc(Cl)cc1-c1ccccc1F` [Example 125, 2-(5-chloro-2′-fluorobiphenyl-2-yl)acetamide], for which the responders at 50 mg/kg was 66.7% in test [1] (50 mg/kg oral) and 33.3% in test [2] (50 mg/kg oral). The responders at 100 mg/kg in test [1] (100 mg/kg oral) is 100%; in test [2] (100 mg/kg oral) it was 66.7%.

Consider `N#Cc1c(-c2ccccc2CC(N)=O)cccc1C(F)(F)F` [Example 108], for which the responders at 100 mg/kg is 0% in test [1] (100 mg/kg oral) and 66.7% in test [2] (100 mg/kg oral).

On to `NC(=O)Cc1ccccc1-c1cccc(F)c1F` [Example 20, 2-(2′,3′-difluorobiphenyl-2-yl)acetamide], for which the responders at 50 mg/kg in test [1] (50 mg/kg oral) and in test [2] (50 mg/kg oral) was 66.7% each time. For the same molecule, the values for the responders at 100 mg/kg in test [1] (100 mg/kg oral) and in test [2] (100 mg/kg oral) were 100% and 66.7%, respectively. Besides, the “anticonvulsant action in maximum electroshock seizure (MES) model test” value in test [1] was “anticonvulsant action was observed”. Moreover, the “anticonvulsant action in subcutaneously pentetrazol-injected model (scPTZ) test” value in test [2] was “anticonvulsant action was observed”.

With `CNC(=O)Cc1cc(F)ccc1-c1ccc(F)cc1` [Example 115, 2-(4,4′-difluorobiphenyl-2-yl)-N-methylacetamide], the responders at 50 mg/kg in test [1] (50 mg/kg oral) was 100%. Moreover, the figures for the responders at 100 mg/kg in test [1] (100 mg/kg oral) and in test [2] (100 mg/kg oral) were 100% and 0%, respectively.

Consider `CC(C(N)=O)c1ccccc1-c1cccc(Cl)c1` (stereo not drawn) [Example 177], for which the responders at 100 mg/kg in test [1] (100 mg/kg oral) is 0%; in test [2] (100 mg/kg oral) it was 33.3%.

`CNC(=O)C(F)c1ccccc1-c1ccc(F)cc1` (stereo not drawn) [Example 166, 2-fluoro-2-(4′-fluorobiphenyl-2-yl)-N-methylacetamide]: the figures for the responders at 50 mg/kg in test [1] (50 mg/kg oral) and in test [2] (50 mg/kg oral) were 66.7% and 33.3%, respectively. For the same molecule, the responders at 100 mg/kg is 100% in test [1] (100 mg/kg oral) and 66.7% in test [2] (100 mg/kg oral).

Take `O=C(Cc1ccccc1-c1ccccc1F)NCC1CC1` [Example 173]: the responders at 100 mg/kg in test [1] (100 mg/kg oral) was 33.3%; in test [2] (100 mg/kg oral), 0%.

Consider `NC(=O)C(O)c1ccccc1-c1cc(F)cc(Cl)c1` (single isomer, unassigned) [Example 218, 2-(3′-Chloro-5′-fluorobiphenyl-2-yl)-2-hydroxyacetamide], for which the “MES (positive number/tested number)” value in test [1] (50 mg/kg oral) is reported as 1/3. Also, the responders at 100 mg/kg in test [1] (100 mg/kg oral) was 100%. Besides, the “scPTZ (positive number/tested number)” value in test [2] (50 mg/kg oral) is listed as 1/3; in test [2] (100 mg/kg oral) it was 2/3.

Take `CCNC(=O)Cc1ccccc1-c1ccccc1C(F)(F)F` [Example 8, N-ethyl-2-[2′-(trilluoromethyl)biphenyl-2-yl]acetamide]: the responders at 50 mg/kg in test [1] (50 mg/kg oral) and in test [2] (50 mg/kg oral) was 0% in each case. Also, the values for the responders at 100 mg/kg in test [1] (100 mg/kg oral) and in test [2] (100 mg/kg oral) were 100% and 66.7%, respectively.

As to `CS(=O)(=O)c1ccc(-c2ccccc2CC(N)=O)cc1` [Example 77], in test [1] (100 mg/kg oral), the responders at 100 mg/kg was 0%. Besides, in test [2] (100 mg/kg oral), the “scPTZ (positive number/tested number)” value was 2/3.

With `NC(=O)Cc1ccccc1-c1cccc(Cl)c1F` [Example 85], the responders at 100 mg/kg in test [1] (100 mg/kg oral) is 100%; in test [2] (100 mg/kg oral) it was 33.3%.

On to `CNC(=O)Cc1cc(Cl)ccc1-c1ccc(F)cc1` [Example 130], for which the responders at 100 mg/kg in test [1] (100 mg/kg oral) was 100%; in test [2] (100 mg/kg oral) it was 0%.

Turning to `CNC(=O)Cc1cc(Cl)ccc1-c1ccccc1` [Example 36], in test [1] (50 mg/kg oral), the responders at 50 mg/kg was 0%. Also, the figures for the responders at 100 mg/kg in test [1] (100 mg/kg oral) and in test [2] (100 mg/kg oral) were 100% and 33.3%, respectively.

As to `CNC(=O)C(F)c1ccccc1-c1ccccc1F` (stereo not drawn) [Example 165, 2-fluoro-2-(2′-fluorobiphenyl-2-yl)-N-methylacetamide], the responders at 50 mg/kg in test [1] (50 mg/kg oral) is 66.7%. In addition, the responders at 100 mg/kg is 100% in test [1] (100 mg/kg oral) and 33.3% in test [2] (100 mg/kg oral).

Regarding `NC(=O)C(O)c1ccccc1-c1ccccc1F` (single isomer, unassigned) [Example 213, 2-(2′-Fluorobiphenyl-2-yl)-2-hydroxyacetamide], in test [1] (50 mg/kg oral), the “MES (positive number/tested number)” value is 0/3. Besides, the responders at 100 mg/kg in test [1] (100 mg/kg oral) is 100%; in test [2] (100 mg/kg oral) it was 33.3%.

Consider `NC(=O)Cc1cc(C(F)(F)F)ccc1-c1cccc(F)c1` [Example 144], for which the responders at 100 mg/kg in test [1] (100 mg/kg oral) is 33.3%; in test [2] (100 mg/kg oral), 66.7%.

On to `NC(=O)Cc1c(F)cccc1-c1ccccc1` [Example 118, 2-(3-fluorobiphenyl-2-yl)acetamide], for which the responders at 50 mg/kg in test [1] (50 mg/kg oral) is 100%. Further, the results for the responders at 100 mg/kg in test [1] (100 mg/kg oral) and in test [2] (100 mg/kg oral) were 100% and 33.3%, respectively.

Regarding `CNC(=O)Cc1ccccc1-c1ccc(OC(F)(F)F)cc1` [Example 103], the values for the responders at 100 mg/kg in test [1] (100 mg/kg oral) and in test [2] (100 mg/kg oral) were 100% and 33.3%, respectively.

For `NC(=O)Cc1ccccc1-c1cc(F)cc(F)c1F` [Example 67, 2-(2′,3′,5′-trifluorobiphenyl-2-yl)acetamide], the responders at 50 mg/kg in test [1] (50 mg/kg oral) and in test [2] (50 mg/kg oral) was 66.7% in each case. Also, the responders at 100 mg/kg in test [1] (100 mg/kg oral) and in test [2] (100 mg/kg oral) was 66.7% each time. The “anticonvulsant action in maximum electroshock seizure (MES) model test” value in test [1] is on record as “anticonvulsant action was observed”. Further, the “anticonvulsant action in subcutaneously pentetrazol-injected model (scPTZ) test” value in test [2] was “anticonvulsant action was observed”.

Turning to `COC(C(N)=O)c1ccccc1-c1ccc(F)cc1` (stereo not drawn) [Example 203, 2-(4′-fluorobiphenyl-2-yl)-2-methoxyacetamide], the responders at 50 mg/kg in test [1] (50 mg/kg oral) was 33.3%; in test [2] (50 mg/kg oral), 66.7%. Besides, the responders at 100 mg/kg in test [1] (100 mg/kg oral) is 66.7%; in test [2] (100 mg/kg oral), 100%.

Take `NC(=O)Cc1ccccc1-c1ccc(F)c(F)c1` [Example 21, 2-(3′,4′-difluorobiphenyl-2-yl)acetamide]: the responders at 50 mg/kg is 33.3% in test [1] (50 mg/kg oral) and 0% in test [2] (50 mg/kg oral). The responders at 100 mg/kg in test [1] (100 mg/kg oral) and in test [2] (100 mg/kg oral) was 100% in each case.

On to `NC(=O)Cc1ccc([N+](=O)[O-])cc1-c1ccccc1F` [Example 113, 2-(2′-fluoro-5-nitrobiphenyl-2-yl)acetamide], for which, in test [1] (50 mg/kg oral), the responders at 50 mg/kg is 66.7%. Further, the figures for the responders at 100 mg/kg in test [1] (100 mg/kg oral) and in test [2] (100 mg/kg oral) were 100% and 33.3%, respectively.

With `CNC(=O)Cc1ccccc1-c1ccccc1Cl` [Example 17], the responders at 100 mg/kg is 0% in test [1] (100 mg/kg oral) and 33.3% in test [2] (100 mg/kg oral).

As to `NC(=O)Cc1ccccc1-c1ccc(Cl)cc1F` [Example 68, 2-(4′-chloro-2′-fluorobiphenyl-2-yl)acetamide], the responders at 50 mg/kg in test [1] (50 mg/kg oral) and in test [2] (50 mg/kg oral) was 0% in each case. Also, the responders at 100 mg/kg in test [1] (100 mg/kg oral) is 100%; in test [2] (100 mg/kg oral), 66.7%.

Consider `CS(=O)(=O)c1ccc(-c2ccccc2CC(N)=O)cc1` [Example 92], for which the “MES (positive number/tested number)” value in test [1] (100 mg/kg oral) is given as 0/3. In addition, the “scPTZ (positive number/tested number)” value in test [2] (100 mg/kg oral) was 1/3.

For `NC(=O)Cc1ccccc1-c1ccc(OC(F)(F)F)cc1` [Example 76, 2-[4′-(trifluoromethoxy)biphenyl-2-yl]acetamide], the responders at 50 mg/kg in test [1] (50 mg/kg oral) is 0%; in test [2] (50 mg/kg oral), 33.3%. The responders at 100 mg/kg is 100% in test [1] (100 mg/kg oral) and 66.7% in test [2] (100 mg/kg oral).

As for `NC(=O)Cc1ccccc1-c1cc(F)c(F)cc1F` [Example 69], the responders at 100 mg/kg in test [1] (100 mg/kg oral) is 33.3%; in test [2] (100 mg/kg oral) it was 66.7%.

In the case of `CNC(=O)C1(c2ccccc2-c2cccc(F)c2)CC1` [Example 159, 1-(3′-fluorobiphenyl-2-yl)-N-methyl-cyclopropane-carboxamide], the responders at 50 mg/kg in test [1] (50 mg/kg oral) and in test [2] (50 mg/kg oral) was 33.3% throughout. For the same molecule, the responders at 100 mg/kg in test [1] (100 mg/kg oral) and in test [2] (100 mg/kg oral) was 66.7% in each case.

`CNC(=O)C(C)c1ccccc1-c1cccc(F)c1` (stereo not drawn) [Example 176]: the responders at 100 mg/kg in test [1] (100 mg/kg oral) was 33.3%; in test [2] (100 mg/kg oral), 0%.
